The text below walks through data of PMC11249239 (PLOS ONE, 2024).

One assay has as its target HDAC5 (Homo sapiens, UniProt Q9UQL6). Put plainly: HDAC5 activity inhibition (data not shown). It is filed as biochemical. As to conditions: read-out: IC50 class IIa HDAC5 inhibition.
Another assay has as its system MCF10A cells. Put plainly: Radiation clonogenic survival assay, MCF10A. It counts as cell-based. As to conditions: 0.3 μM for 24 h then graded γ-radiation, control 2.5 Gy. Here is the method: Logarithmically growing cells were treated with vehicle (0.1% Dimethyl Sulfoxide) or SP-1-303 (0.3 μM) for 24 h followed by sham or γ-radiation using a Mark-30 irradiator with a 137Cs source at a fixed dose rate of 2.71 Gy/min. Cells were exposed to graded doses at room temperature. After 10–14 days, cells were fixed and stained with crystal violet, and colonies were counted. The surviving fractions of treated cells were normalized using the plating efficiencies of untreated controls. Radiation survival curves were generated by fitting to the single-hit, multitarget model.

Another assay addresses T1, HDAC6 (Homo sapiens, UniProt Q9UBN7).
T1 construct: purchased PBS Bioscience [sic] (San Diego, CA); host or cells: Sf9 insect cells / baculovirus
T1 sequence (Q9UBN7 1-1215): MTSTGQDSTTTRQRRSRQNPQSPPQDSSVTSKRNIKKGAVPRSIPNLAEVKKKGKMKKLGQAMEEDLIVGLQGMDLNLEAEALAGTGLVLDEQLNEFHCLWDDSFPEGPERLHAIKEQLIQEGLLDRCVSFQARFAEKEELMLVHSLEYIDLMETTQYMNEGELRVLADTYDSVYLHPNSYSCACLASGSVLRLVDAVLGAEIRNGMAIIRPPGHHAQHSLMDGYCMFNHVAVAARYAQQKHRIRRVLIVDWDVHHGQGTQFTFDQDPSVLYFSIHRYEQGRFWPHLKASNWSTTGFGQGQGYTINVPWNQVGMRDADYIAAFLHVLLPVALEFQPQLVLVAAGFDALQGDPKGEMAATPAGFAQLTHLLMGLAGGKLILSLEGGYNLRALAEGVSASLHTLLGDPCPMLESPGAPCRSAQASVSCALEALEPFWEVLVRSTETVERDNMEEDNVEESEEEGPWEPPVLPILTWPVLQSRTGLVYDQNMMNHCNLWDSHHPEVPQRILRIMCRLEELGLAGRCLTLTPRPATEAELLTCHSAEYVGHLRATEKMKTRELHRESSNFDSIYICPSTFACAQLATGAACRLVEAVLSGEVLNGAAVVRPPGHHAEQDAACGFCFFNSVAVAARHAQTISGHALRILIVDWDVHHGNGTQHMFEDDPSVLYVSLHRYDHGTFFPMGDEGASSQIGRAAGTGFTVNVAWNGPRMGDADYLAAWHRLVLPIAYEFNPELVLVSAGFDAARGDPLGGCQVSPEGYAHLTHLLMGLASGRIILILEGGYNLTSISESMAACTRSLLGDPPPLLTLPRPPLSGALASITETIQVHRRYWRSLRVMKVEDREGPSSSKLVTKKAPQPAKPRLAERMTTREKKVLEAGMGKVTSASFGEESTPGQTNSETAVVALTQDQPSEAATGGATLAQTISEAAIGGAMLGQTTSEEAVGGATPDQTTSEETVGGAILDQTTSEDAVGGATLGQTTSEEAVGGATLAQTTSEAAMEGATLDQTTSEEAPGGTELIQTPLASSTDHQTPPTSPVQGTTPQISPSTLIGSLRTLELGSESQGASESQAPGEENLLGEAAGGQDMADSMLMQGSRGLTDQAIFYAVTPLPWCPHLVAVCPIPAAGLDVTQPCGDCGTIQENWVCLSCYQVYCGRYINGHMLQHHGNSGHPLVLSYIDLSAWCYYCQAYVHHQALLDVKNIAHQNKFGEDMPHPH
Description: In vitro HDAC isoform inhibition, purified recombinant HDAC6. It is filed as biochemical. An excerpt: In vitro HDAC enzyme inhibition assays utilized HeLa cell extract for pan-HDACs with the substrate Fluor-Lys following the manufacturer’s protocol (BIOMOL/ENZO, Plymouth Meeting, PA). For isoform assays, purified HDAC1, HDAC3, and HDAC6 recombinant proteins produced by expressing epitope-tagged full-length proteins in the sf9 baculovirus expression vector system were purchased from PBS Bioscience (San Diego, CA). […] The reaction commenced with the addition of HDAC substrate at room temperature and proceeded for 30 minutes. Termination of the reaction was achieved by adding 50 μL of Fluor de Lys (TM) Assay Developer. The fluorophore was excited at 360 nm and emitted light at 460 nm. Relative fluorescence was measured using a FlexStation II plate reader (Molecular Devices, Sunnyvale, CA).

HDAC5, sequence (Q9UQL6 whole entry, species assumed): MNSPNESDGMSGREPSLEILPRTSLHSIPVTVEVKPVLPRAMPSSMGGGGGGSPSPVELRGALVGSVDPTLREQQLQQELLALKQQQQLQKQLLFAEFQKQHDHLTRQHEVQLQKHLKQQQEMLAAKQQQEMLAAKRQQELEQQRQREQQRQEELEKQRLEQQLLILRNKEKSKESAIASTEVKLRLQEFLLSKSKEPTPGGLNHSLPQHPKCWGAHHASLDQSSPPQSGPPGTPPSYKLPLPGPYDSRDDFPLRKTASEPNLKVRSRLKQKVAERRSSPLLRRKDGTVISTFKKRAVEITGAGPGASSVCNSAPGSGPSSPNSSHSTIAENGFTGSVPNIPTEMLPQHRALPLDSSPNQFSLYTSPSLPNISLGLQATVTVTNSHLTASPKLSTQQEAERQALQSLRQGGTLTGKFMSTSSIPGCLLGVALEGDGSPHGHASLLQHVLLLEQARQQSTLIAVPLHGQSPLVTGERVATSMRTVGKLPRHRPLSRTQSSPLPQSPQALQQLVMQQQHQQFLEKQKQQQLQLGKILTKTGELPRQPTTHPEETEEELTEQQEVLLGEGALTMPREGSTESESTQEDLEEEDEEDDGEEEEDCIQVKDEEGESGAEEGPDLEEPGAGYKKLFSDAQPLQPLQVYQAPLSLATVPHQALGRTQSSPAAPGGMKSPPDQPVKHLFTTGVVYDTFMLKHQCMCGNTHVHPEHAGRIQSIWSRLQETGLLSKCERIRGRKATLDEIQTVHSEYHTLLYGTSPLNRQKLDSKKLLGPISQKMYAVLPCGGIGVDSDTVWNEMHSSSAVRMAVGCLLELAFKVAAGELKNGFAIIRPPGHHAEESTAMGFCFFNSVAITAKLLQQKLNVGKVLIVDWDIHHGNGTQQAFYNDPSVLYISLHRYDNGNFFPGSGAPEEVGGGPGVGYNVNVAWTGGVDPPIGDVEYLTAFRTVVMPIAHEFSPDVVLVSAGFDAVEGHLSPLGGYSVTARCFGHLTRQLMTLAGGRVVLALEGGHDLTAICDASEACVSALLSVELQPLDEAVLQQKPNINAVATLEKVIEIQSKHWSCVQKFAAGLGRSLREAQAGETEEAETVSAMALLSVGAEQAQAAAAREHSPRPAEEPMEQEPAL

In the case of `Cc1[nH]c2ccccc2c1C1=C(c2c(C)[nH]c3ccccc23)C(=O)N(CCCCCCC(=O)NO)C1=O` [SP-1-303], the IC50 (as a rule, the midpoint of a concentration-inhibition curve) at HDAC5 is above 20000 nM; at HDAC6 (purified recombinant protein, ± margin of error of 95% confidence interval, read-out: IC50 HDAC inhibition activity in vitro, HDAC 6), 435 ± 35 nM. Moreover, the “D0, radiation clonogenic survival” value in the assay on MCF10A cells is listed as 2.4 Gy. Besides, the “ratio of inhibitory concentrations for HDAC6 to HDAC1” value on HDAC6 turned out to be 36 fold. In addition, the “Ratio (HDAC6:HDAC1)” value at HDAC6 (ratio of IC50 values) is on record as 36.
